From patent US8114863B2, “Compounds comprising short aminoalcohol chains and metal complexes for medical imaging” (Guerbet, priority 2005, dated 2012)
One block for each compound: values may come before it.

How the values were obtained:
[1] = Relaxivity measurements (r1 from relaxation times T1/T2, Minispec 120); format: physicochemical
Procedure: […] The longitudinal relaxation time T1 is measured using an inversion recovery sequence and the transverse relaxation time T2 is measured by a CPMG technique.
The relaxation rates R1 (=1/T1) and R2 (=1/T2) were calculated for different total metal concentrations (varying from 0.1×10^−3 to 1×10^−3 mol/l) in aqueous solution at 37° C. The correlation between R1 or R2 as a function of the concentration is linear and the slope represents the relaxivity r1 (RUC) or r2 (R2/C) expressed as (1/second)×(1/mmol/l), i.e. mM^−1·s^−1.
The compounds were prepared in different media: water, NaCl, citrate, phosphate, carbonate, cocktail of ions.

[2] = Osmolality (Wescor 5220 tonometer); format: physicochemical; conditions: at administration dose of the product in man (500 mM; Gadovist 1000 mM)
[3] = tested on: C6 glioma; assay: In vivo MRI imaging study, detection of C6 glioma in rat; conditions: 0.1 mmol/kg, 2.35 T
Procedure: Compounds II (example 2) was compared to Dotarem® ans MultiHance(® for the detection of C6 glioma in rat (n=6/product). Each animal received all the three products at the same dose (0.1 mmol/kg) in a random order. A minimal delay of 4 hours has been respected between the injections in order to avoid remaining contrast from the previous injection. Enhancement was follow-up during 30 min with a T1w-Spin Echo sequence (TR/TE=498/14.2 ms, FOV=4×4 cm2, slice thickness 2 mm, interslice distance 3 mm, 192×192 matrix, 2 accumulation) on a 2.35 T system (BioSpec 24/40, Bruker, Germany). Enhancement of the lesions have been quantitatively (ROIs) and qualitatively (blinded cotation) evaluated. […] However among the three contrast agents, compound II induced a 2 fold-more pronounced contrast between the lesion and the healthy brain.

Relaxivity r1 in water (mM − 1s − 1) at 0.5 T [1]: 6.2 mM − 1s − 1
Structure (SMILES): O=C(O)CCC(C(=O)O)N1CCN(C(CCC(=O)O)C(=O)O)CCN(C(CCC(=O)O)C(=O)O)CCN(C(CCC(=O)O)C(=O)O)CC1 (stereo not shown)

Osmality (mOsm/kg) [2]: 1400 mOsm/kg
Structure (SMILES): O=C([O-])CN1CCN(CC(=O)[O-])CCN([C@H](CO)[C@H](O)CO)CCN(CC(=O)[O-])CC1.[Gd+3] (racemic) [Gadovist ® (1M)]

relaxivity ([1]; field not stated): 6
Relaxivity r1 in water (mM − 1s − 1) at 0.5 T [1]: 6 mM − 1s − 1
Structure (SMILES): O=C(O)C(CCO)N1CCN(C(CCO)C(=O)O)Cc2cccc(n2)CN(C(CCO)C(=O)O)CC1 (stereo not shown) [Comparative Example 9]

Osmality (mOsm/kg) [2]: 1350 mOsm/kg
Relaxivity r1 at 60 MHz in water [1]: 3.5 mM⁻¹ s⁻¹
Structure (SMILES): CNC[C@H](O)[C@@H](O)[C@H](O)[C@H](O)CO.O=C([O-])CN1CCN(CC(=O)[O-])CCN(CC(=O)O)CCN(CC(=O)[O-])CC1.[Gd+3] [Dotarem ®]
depiction of the lesions [3]: All the lesions have been depicted

Osmality (mOsm/kg) [2]: 1950 mOsm/kg
Relaxivity r1 at 60 MHz in water [1]: 3.5 mM⁻¹ s⁻¹
Structure (SMILES): CNC[C@H](O)[C@@H](O)[C@H](O)[C@H](O)CO.CNC[C@H](O)[C@@H](O)[C@H](O)[C@H](O)CO.O=C([O-])CN(CCN(CC(=O)[O-])CC(=O)O)CCN(CC(=O)[O-])CC(=O)O.[Gd+3] [Magnevist ®]

Structure (SMILES): CNC[C@H](O)[C@@H](O)[C@H](O)[C@H](O)CO.CNC[C@H](O)[C@@H](O)[C@H](O)[C@H](O)CO.O=C([O-])CN(CCN(CC(=O)[O-])CC(=O)O)CCN(CC(=O)O)C(COCc1ccccc1)C(=O)[O-].[Gd+3] (stereo not shown) [MultiHance]
depiction of the lesions [3]: All the lesions have been depicted

relaxivity at 20 MHz ([1]; 20 MHz): 14.7 mM^−1s^−1 Gd^−1
relaxivity at 40 MHz ([1]; 40 MHz): 12.8 mM^−1s^−1 Gd^−1
relaxivity at 300 MHz ([1]; 300 MHz): 10.4 mM^−1s^−1 Gd^−1
Structure (SMILES): O=C(CCCC(C(=O)O)N1CCN(C(CCCC(=O)NCC(O)CO)C(=O)O)Cc2cccc(n2)CN(C(CCCC(=O)NCC(O)CO)C(=O)O)CC1)NCC(O)CO (stereo not shown) [complex 7]
